What was measured:
[1] = test system: NF-kB; test: NF-kB reporter assay in Jurkat cells stimulated with aCD3/aCD28/PMA; assay type: cell-based; details: Homo sapiens, Jurkat, Jurkat cells, 1 hr compound incubation, aCD3/aCD28/PMA stimulation 4 hr, One-Glo readout; read-out: NF-kB Reporter Assay IC50
Summary of the method: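 Jurkat cells (25,000/well, serum-free RPMI 1640) preincubated 1 hr at 37° C with serially diluted compound, then stimulated with aCD3/aCD28/PMA (final 5 μg/mL, 5 μg/mL, 0.03 μg/mL) for 4 hr. Reporter luminescence read with One-Glo; IC50 derived.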

[2] = biological target: T1, MALT1 (Homo sapiens, UniProt Q9UDY8); test: MALT-1 Fluorogenic Peptide Cleavage Assay (MALT1 inhibition assay); assay type: biochemical; details: Avi-tagged FL MALT-1, Ac-LRSR-AMC peptide substrate, 30 min pre-incubation, 90 min reaction
T1 construct: Avi-tagged FL MALT-1 (Pharmaron, stored at −70° C.); Avi tag
T1 sequence (Q9UDY8 1-824): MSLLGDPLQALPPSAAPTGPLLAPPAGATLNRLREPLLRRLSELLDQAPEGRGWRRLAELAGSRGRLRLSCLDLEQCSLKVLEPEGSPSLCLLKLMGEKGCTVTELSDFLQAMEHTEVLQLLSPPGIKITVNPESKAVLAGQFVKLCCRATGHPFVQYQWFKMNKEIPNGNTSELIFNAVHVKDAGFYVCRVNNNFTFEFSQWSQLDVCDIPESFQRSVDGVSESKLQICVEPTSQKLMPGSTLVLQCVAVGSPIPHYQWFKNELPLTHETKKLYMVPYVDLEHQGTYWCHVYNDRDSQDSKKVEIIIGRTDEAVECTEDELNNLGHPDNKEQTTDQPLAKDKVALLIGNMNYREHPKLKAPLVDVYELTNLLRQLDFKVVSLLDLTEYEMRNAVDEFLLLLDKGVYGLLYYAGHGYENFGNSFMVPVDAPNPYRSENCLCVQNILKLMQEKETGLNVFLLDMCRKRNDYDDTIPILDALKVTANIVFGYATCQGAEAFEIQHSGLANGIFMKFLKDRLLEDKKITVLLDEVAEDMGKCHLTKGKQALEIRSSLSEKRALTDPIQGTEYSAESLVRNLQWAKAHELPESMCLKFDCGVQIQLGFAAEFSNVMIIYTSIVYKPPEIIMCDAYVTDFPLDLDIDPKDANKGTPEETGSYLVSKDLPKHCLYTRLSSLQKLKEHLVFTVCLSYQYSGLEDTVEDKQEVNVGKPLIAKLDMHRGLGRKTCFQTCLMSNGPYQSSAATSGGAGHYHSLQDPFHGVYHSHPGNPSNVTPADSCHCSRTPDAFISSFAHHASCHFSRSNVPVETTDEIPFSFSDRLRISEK
Summary of the method: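 Avi-tagged full-length MALT1 pre-incubated 30 min with compound (2% DMSO final), then cleavage of Ac-LRSR-AMC followed over 90 min at room temperature. AMC fluorescence read at 342/441 nm; % inhibition fitted to sigmoidal curves for IC50.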

COc1ccc2cn[nH]c2c1NS(=O)(=O)c1ccc(-n2cc(C(F)(F)F)cn2)nc1 [Example I-175, N-(6-methoxy-1H-indazol-7-yl)-6-(4-(trifluoromethyl)-1H-pyrazol-1-yl)pyridine-3-sulfonamide]
IC50 [1]: < 400 nM
IC50 [2]: < 400 nM

COc1ccc2cnn(C)c2c1NS(=O)(=O)c1ccc(-c2nc(C)n(C)n2)nc1 [Example I-176, 6-(1,5-Dimethyl-1,2,4-Triazol-3-yl)-N-(6-Methoxy-1-Methylindazol-7-yl)Pyridine-3-Sulfonamide]
IC50 [1]: > 2500 nM
IC50 [2]: > 2500 nM

COc1ccc2cnn(C)c2c1NS(=O)(=O)c1ccc(CO)nc1 [Example I-177, 6-(Hydroxymethyl)-N-(6-Methoxy-1-Methyl-1H-Indazol-7-yl)Pyridine-3-Sulfonamide]
IC50 [1]: > 2500 nM
IC50 [2]: > 2500 nM

COc1ccc2cnn(C)c2c1NS(=O)(=O)c1ccc(C(C)(C)O)nc1 [Example I-178, 6-(2-Hydroxypropan-2-yl)-N-(6-Methoxy-1-Methyl-1H-Indazol-7-yl)Pyridine-3-Sulfonamide]
IC50 [1]: > 2500 nM
IC50 [2]: > 2500 nM

Cn1c(=O)c2cccc(N)c2n1S(=O)(=O)c1ccc(-n2cc(C(F)(F)F)cn2)nc1 [Example I-179, 7-Amino-2-Methyl-1-((6-(4-(Trifluoromethyl)-1H-Pyrazol-1-yl)Pyridin-3-yl)Sulfonyl)-1,2-Dihydro-3H-Indazol-3-One]
IC50 [1]: > 2500 nM
IC50 [2]: > 2500 nM

COc1ncc2nnn(C)c2c1NS(=O)(=O)c1ccc(-n2cc(C(F)(F)F)cn2)nc1 [Example I-180, N-{6-methoxy-1-methyl-[1,2,3]triazolo[4,5-c]pyridin-7-yl}-6-[4-(trifluoromethyl)pyrazol-1-yl]pyridine-3-sulfonamide]
IC50 [1]: 1000 to 2500 nM
IC50 [2]: 400 to 1000 nM

Cn1[nH]c2c(NS(=O)(=O)c3ccc(-n4cc(C(F)(F)F)cn4)nc3)cccc2c1=O [Example I-181, N-(2-methyl-3-oxo-2,3-dihydro-1H-indazol-7-yl)-6-(4-(trifluoromethyl)-1H-pyrazol-1-yl)pyridine-3-sulfonamide]
IC50 [1]: 400 to 1000 nM
IC50 [2]: > 2500 nM

Cn1c(=O)c2c(NS(=O)(=O)c3ccc(-n4cc(C(F)(F)F)cn4)nc3)cccc2n1C [Example I-182, N-(1,2-dimethyl-3-oxo-2,3-dihydro-1H-indazol-4-yl)-6-(4-(trifluoromethyl)-1H-pyrazol-1-yl)pyridine-3-sulfonamide]
IC50 [1]: > 2500 nM
IC50 [2]: > 2500 nM

COc1ncc2cnn(C)c2c1N(C)S(=O)(=O)c1ccc(-n2cc(C(F)(F)F)cn2)nc1 [Example I-183, N-(6-methoxy-1-methyl-1H-pyrazolo[4,3-c]pyridin-7-yl)-N-methyl-6-(4-(trifluoromethyl)-1H-pyrazol-1-yl)pyridine-3-sulfonamide]
IC50 [1]: < 400 nM
IC50 [2]: < 400 nM

COc1ncc2cnn(C)c2c1NS(=O)(=O)c1ccc(-n2cc(C)cn2)nc1 [Example I-184, N-{6-methoxy-1-methylpyrazolo[4,3-c]pyridin-7-yl}-6-(4-methylpyrazol-1-yl)pyridine-3-sulfonamide]
IC50 [1]: < 400 nM
IC50 [2]: < 400 nM

COc1ncc2cnn(C)c2c1NS(=O)(=O)c1ccc(-n2ccc(C3CC3)n2)nc1 [Example I-185, 6-(3-cyclopropyl-1H-pyrazol-1-yl)-N-(6-methoxy-1-methyl-1H-pyrazolo[4,3-c]pyridin-7-yl)pyridine-3-sulfonamide]
IC50 [1]: < 400 nM
IC50 [2]: < 400 nM

COc1ncc2cnn(C)c2c1NS(=O)(=O)c1ccc(-c2csc(C)n2)nc1 [Example I-186, N-(6-methoxy-1-methyl-1H-pyrazolo[4,3-c]pyridin-7-yl)-6-(2-methylthiazol-4-yl)pyridine-3-sulfonamide]
IC50 [1]: < 400 nM
IC50 [2]: < 400 nM

COc1ncc2cnn(C)c2c1NS(=O)(=O)c1ccc(-n2cc(C3CC3)cn2)nc1 [Example I-187, 6-(4-cyclopropylpyrazol-1-yl)-N-{6-methoxy-1-methylpyrazolo[4,3-c]pyridin-7-yl}pyridine-3-sulfonamide]
IC50 [1]: < 400 nM
IC50 [2]: < 400 nM

COc1ccc2ccn(C)c2c1NS(=O)(=O)c1ccc(-n2cc(C(F)(F)F)cn2)nc1 [Example I-188, N-(6-methoxy-1-methyl-1H-indol-7-yl)-6-(4-(trifluoromethyl)-1H-pyrazol-1-yl)pyridine-3-sulfonamide]
IC50 [1]: < 400 nM
IC50 [2]: < 400 nM

Cc1ncc2cnn(C)c2c1NS(=O)(=O)c1ccc(-n2cc(C(F)(F)F)cn2)nc1 [Example I-189, N-(1,6-dimethyl-1H-pyrazolo[4,3-c]pyridin-7-yl)-6-(4-(trifluoromethyl)-1H-pyrazol-1-yl)pyridine-3-sulfonamide]
IC50 [1]: 1000 to 2500 nM
IC50 [2]: 1000 to 2500 nM

Cn1[nH]c2cccc(NS(=O)(=O)c3ccc(-n4cc(C(F)(F)F)cn4)nc3)c2c1=O [Example I-190, N-(2-methyl-3-oxo-2,3-dihydro-1H-indazol-4-yl)-6-(4-(trifluoromethyl)-1H-pyrazol-1-yl)pyridine-3-sulfonamide]
IC50 [1]: > 2500 nM
IC50 [2]: > 2500 nM

COc1ccc2cnn(C)c2c1NS(=O)(=O)c1ccc(-n2cc(C(C)(F)F)cn2)nc1 [Example I-191, 6-(4-(1,1-difluoroethyl)-1H-pyrazol-1-yl)-N-(6-methoxy-1-methyl-1H-indazol-7-yl)pyridine-3-sulfonamide]
IC50 [1]: < 400 nM
IC50 [2]: < 400 nM

COc1ncc2cnn(C)c2c1NS(=O)(=O)c1ccc(-n2cc(C(F)F)cn2)nc1 [Example I-192, 6-(4-(difluoromethyl)-1H-pyrazol-1-yl)-N-(6-methoxy-1-methyl-1H-pyrazolo[4,3-c]pyridin-7-yl)pyridine-3-sulfonamide]
IC50 [1]: < 400 nM
IC50 [2]: < 400 nM

COc1ncc2cnn(C)c2c1NS(=O)(=O)c1ccc(-n2cc(F)cn2)nc1 [Example I-193, 6-(4-fluoro-1H-pyrazol-1-yl)-N-(6-methoxy-1-methyl-1H-pyrazolo[4,3-c]pyridin-7-yl)pyridine-3-sulfonamide]
IC50 [1]: < 400 nM
IC50 [2]: < 400 nM

COc1ncc2cnn(C)c2c1NS(=O)(=O)c1ccc(-n2cc(C(C)C)cn2)nc1 [Example I-194, 6-(4-isopropyl-1H-pyrazol-1-yl)-N-(6-methoxy-1-methyl-1H-pyrazolo[4,3-c]pyridin-7-yl)pyridine-3-sulfonamide]
IC50 [1]: < 400 nM
IC50 [2]: < 400 nM

COc1ncc2cnn(C)c2c1N(C)S(=O)(=O)c1ccc(-n2ccc(C(F)(F)F)n2)nc1 [Example I-195, N-(6-Methoxy-1-Methyl-1H-Pyrazolo[4,3-C]Pyridin-7-yl)-N-Methyl-6-(3-(Trifluoromethyl)-1H-Pyrazol-1-yl)Pyridine-3-Sulfonamide]
IC50 [1]: < 400 nM
IC50 [2]: < 400 nM

COc1ncc2cnn(C)c2c1NS(=O)(=O)c1ccc(-n2ccc(C)n2)nc1 [Example I-197, N-{6-methoxy-1-methylpyrazolo[4,3-c]pyridin-7-yl}-6-(3-methylpyrazol-1-yl)pyridine-3-sulfonamide]
IC50 [1]: < 400 nM
IC50 [2]: < 400 nM

Cn1[nH]c(=O)c2c(NS(=O)(=O)c3ccc(-n4cc(C(F)(F)F)cn4)nc3)cccc21 [Example I-198, N-(1-methyl-3-oxo-2,3-dihydro-1H-indazol-4-yl)-6-(4-(trifluoromethyl)-1H-pyrazol-1-yl)pyridine-3-sulfonamide]
IC50 [1]: 1000 to 2500 nM
IC50 [2]: > 2500 nM

Cc1ncc2cccc(NS(=O)(=O)c3ccc(-n4cc(C(F)(F)F)cn4)nc3)n12 [Example I-199, N-(3-methylimidazo[1,5-a]pyridin-5-yl)-6-(4-(trifluoromethyl)-1H-pyrazol-1-yl)pyridine-3-sulfonamide]
IC50 [1]: 1000 to 2500 nM
IC50 [2]: > 2500 nM

COc1ncc2cnn(C)c2c1NS(=O)(=O)c1ccc(-c2cc(C(F)(F)F)n[nH]2)nc1 [Example I-200, N-(6-Methoxy-1-Methyl-1H-Pyrazolo[4,3-C]Pyridin-7-yl)-6-(3-(Trifluoromethyl)-1H-Pyrazol-5-yl)Pyridine-3-Sulfonamide]
IC50 [1]: < 400 nM
IC50 [2]: < 400 nM

Cn1[nH]c(=O)c2cccc(NS(=O)(=O)c3ccc(-n4cc(C(F)(F)F)cn4)nc3)c21 [Example I-201, N-(1-Methyl-3-Oxo-2,3-Dihydro-1H-Indazol-7-yl)-6-(4-(Trifluoromethyl)-1H-Pyrazol-1-yl)Pyridine-3-Sulfonamide]
IC50 [1]: > 2500 nM
IC50 [2]: > 2500 nM
